Data: ChEMBL document CHEMBL1201862, “PubChem BioAssay data set” (2004)
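A five-concentration, 48-hour dose response in 96-well plates underlies each endpoint, interpolated linearly between surrounding concentrations. GI50 is the concentration that inhibits growth by half.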 Calls of active or inactive are those of the source. No stated cut-off is given here; in the data, active = GI50 up to about 1.1 µM and inactive = higher.

How the values were obtained:
Experiment in all cases: NCI anticancer screen, dose series, 48 h
NCI/ADR-RES = tested on: NCI/ADR-RES
OVCAR-5 = tested on: OVCAR-5
SK-OV-3 = tested on: SK-OV-3
HT-29 = tested on: HT-29
KM12 = tested on: KM12
COLO 205 = tested on: COLO 205
IGROV-1 = tested on: IGROV-1
SK-MEL-5 = tested on: SK-MEL-5
RPMI-8226 = tested on: RPMI-8226
SW-620 = tested on: SW-620
SF-539 = tested on: SF-539
OVCAR-3 = tested on: OVCAR-3
SNB-19 = tested on: SNB-19
NCI-H460 = tested on: NCI-H460
SR = tested on: SR
TK-10 = tested on: TK-10
M14 = tested on: M14
DU-145 = tested on: DU-145
MDA-MB-435 = tested on: MDA-MB-435

SMILES	GI50 (NCI/ADR-RES)	GI50 (OVCAR-5)	GI50 (SK-OV-3)	GI50 (HT-29)	GI50 (KM12)	GI50 (COLO 205)	GI50 (IGROV-1)	GI50 (SK-MEL-5)	GI50 (RPMI-8226)	GI50 (SW-620)	GI50 (SF-539)	GI50 (OVCAR-3)	GI50 (SNB-19)	GI50 (NCI-H460)	GI50 (SR)	GI50 (TK-10)	GI50 (M14)	GI50 (DU-145)	GI50 (MDA-MB-435)
C=C1C(=O)OCC2C(C(=O)O)=CC3C(C)C(C)=CC123 (stereo not given)	8.26 µM (inactive)	27.5 µM (inactive)	16.4 µM (inactive)	11.1 µM (inactive)	9.93 µM (inactive)	10.6 µM (inactive)	11.9 µM (inactive)	9.31 µM (inactive)	7.23 µM (inactive)	9.31 µM (inactive)	8.51 µM (inactive)	12.4 µM (inactive)	11.8 µM (inactive)	9.14 µM (inactive)					
CC(=O)c1ccc2c(c1)c1c(C)c3c[n+](C)ccc3c(C)c1n2C	8.55 µM (inactive)	28.9 µM (inactive)	16.1 µM (inactive)	13.2 µM (inactive)	10.6 µM (inactive)	9.57 µM (inactive)	16.5 µM (inactive)	4.73 µM (inactive)	3.84 µM (inactive)	1.03 µM (active)	2.37 µM (inactive)	12 µM (inactive)	1.07 µM (active)	2.76 µM (inactive)					
C/C(=C\c1ccccc1)C(O)C(=O)c1nc2ccc(Cl)cc2nc1O (stereo not given)		> 100 µM (inactive)	> 100 µM (inactive)	> 100 µM (inactive)	> 100 µM (inactive)	> 100 µM (inactive)	> 100 µM (inactive)	> 100 µM (inactive)	12.5 µM (inactive)	> 100 µM (inactive)	> 100 µM (inactive)	55.2 µM (inactive)	> 100 µM (inactive)	> 100 µM (inactive)	25.1 µM (inactive)	> 100 µM (inactive)	> 100 µM (inactive)		
COc1ccc(C2=CC3CCC2C3)cc1 (stereo not given)		> 100 µM (inactive)	12.2 µM (inactive)	> 100 µM (inactive)	> 100 µM (inactive)	> 100 µM (inactive)	> 100 µM (inactive)	> 100 µM (inactive)	> 100 µM (inactive)	> 100 µM (inactive)	> 100 µM (inactive)	> 100 µM (inactive)	> 100 µM (inactive)	> 100 µM (inactive)	> 100 µM (inactive)	> 100 µM (inactive)	> 100 µM (inactive)		
c1ccc(Nc2nnc(-c3ccccc3Nc3ccccc3-c3nnc(Nc4ccccc4)s3)s2)cc1	> 100 µM (inactive)	> 100 µM (inactive)		> 100 µM (inactive)	> 100 µM (inactive)	> 100 µM (inactive)	7.14 µM (inactive)	> 100 µM (inactive)		> 100 µM (inactive)	> 100 µM (inactive)	> 100 µM (inactive)	> 100 µM (inactive)	> 100 µM (inactive)		> 100 µM (inactive)	> 100 µM (inactive)	> 100 µM (inactive)	> 100 µM (inactive)
COc1ccc(C)cc1C1CCC(=O)O1 (stereo not given)		> 100 µM (inactive)	> 100 µM (inactive)	> 100 µM (inactive)	> 100 µM (inactive)	> 100 µM (inactive)	> 100 µM (inactive)	> 100 µM (inactive)	> 100 µM (inactive)	> 100 µM (inactive)	> 100 µM (inactive)	> 100 µM (inactive)	> 100 µM (inactive)	> 100 µM (inactive)	> 100 µM (inactive)	> 100 µM (inactive)	> 100 µM (inactive)		
CCOC(=O)c1sc2nc(SC)nc3c2c1NC(=O)CN3c1ccc(F)cc1		41.7 µM (inactive)	25 µM (inactive)	44.6 µM (inactive)	> 100 µM (inactive)	68.9 µM (inactive)	> 100 µM (inactive)	46.3 µM (inactive)	65.9 µM (inactive)	38.5 µM (inactive)	15.9 µM (inactive)	26.4 µM (inactive)	27.8 µM (inactive)	> 100 µM (inactive)	> 100 µM (inactive)	30.7 µM (inactive)	37.9 µM (inactive)	40.4 µM (inactive)	32.3 µM (inactive)
